# Measured values taken from US10913732B2, “Furoxans as therapies for neurodegenerative disorders” (The University of Toledo, priority 2016, dated 2021).
# Entries after “also recorded” stand apart in the source; their conditions may differ.
# System: Mice
# Assay: Permanent middle carotid artery occlusion (pMCAO) model of stroke
# Type: in vivo
# Procedure: FIGS. 9A-9E: Evaluation of the furoxan 31b. […] Latency to fall was normalized to 4 h post-infarct mean for each group and is represented as mean and s.e.m. (n=12). Analyzed using one way ANOVA analysis with Tukey's post-hoc test. […] Each of the seven tests included in the 28-point NDS was graded from 0-4, with higher scores indicating severe deficits (n=12). Compared using unpaired t-test. […] Compared using unpaired t-test. For all data, *=p<0.05, **=p<0.01, ***=p<0.001.
# 31b (20 mg/kg, i.p.) was administered once daily for 6 days beginning 12 hr after permanent MCAO (pMCAO, FIG. 9A). pMCAO was chosen rather than 2-VO because pMCAO is much simpler and more reliable (pMCAO-no loss of animals vs 2-VO˜30% lethality 7 days post-op). Ultimately, this model allowed for the provision of evidence of neuroprotective efficacy and effect on BDNF.
# Locomotor activity was evaluated by means of a rotarod task by a person blinded to the treatment groups. Mice were placed on a horizontal rod (Columbus Instruments, OH) that was made to rotate at 1 rpm with an acceleration rate of 1 rpm every 10 s until the animal fell from the rod. Each animal was tested three times per trial. All the animals were trained on the rotarod assembly prior to surgery. The duration for which each animal was able to stay on the accelerating rod was recorded as the latency to fall and registered manually. Locomotor activity was monitored 4 h before, 24 h, postsurgery and 7 days after p-MCAO surgery Grip strength was evaluated by holding the mice by tails and placing their forelimbs on a specially designed pull bar assemblies (Grip strength meter, Columbus Instruments, OH). […] Each animal was tested three times per trial at 4 h before, 2 and 7 days after p-MCAO surgery. NDS were evaluated by an optimized 28-point score pattern. A person blinded to the treatment evaluated NDS 7 days after p-MCAO; the evaluation included both sensory and motor deficits, such as body symmetry, gait, climbing, circling behavior, front limb symmetry, compulsory circling, and whisker response. Each of the seven tests included in the 28-point NDS was graded from 0 to 4, with higher scores indicating severe deficits. Animals from all the groups were euthanized 7 days after p-MCAO. Brains were dissected out and sliced into five 2-mm-thick coronal sections before incubating in 1% triphenyltetrazolium chloride (TTC) (Sigma Co., MI). The infarct area was estimated from five slices of each brain, measuring rostral and caudal sides of each individual slice in conjunction with the thickness and expressed as a percentage of the volume of the contralateral hemisphere. A person blinded to the treatment groups measured the infarct volume with the help of ImageJ software provided by NIH.
# [1] = 20 mg/kg i.p. once daily for 6 days beginning 12 hr after pMCAO, day 7
smiles,measurement,setting,value
CC1CCN(Cc2no[n+]([O-])c2-c2ccc(F)cc2)CC1 [31b],Infarct volume reduction,"20 mg/kg i.p. once daily for 6 days after pMCAO, TTC staining, p=0.11",~30%
same,BDNF levels relative to control animals,"20 mg/kg i.p. once daily for 6 days after pMCAO, WB, p=0.07",double the levels of control animals
same,"Behavioral functional recovery, neurologic deficit scoring (NDS)",[1],reverses neurologic deficit; also recorded: significant improvement
same,"Behavioral functional recovery, rotarod",[1],improves rotarod performance; also recorded: significant improvement
